Assays:
[1] = In vivo pharmacokinetics, rat; design: species or system Male Sprague-Dawley rats; conditions: male, Sprague-Dawley, plasma, iv, 0.3 mg/kg
[2] = In vivo pharmacokinetics, dog; design: species or system Male beagle dogs; conditions: male, beagle, plasma, iv, 0.3 mg/kg
[3] = in vitro; conditions: rat, microsomes, pH 7.4
[4] = Caco-2 permeability; assay type: in vitro ADME

## CNC(=O)c1cn(C[C@H](F)CCc2ccc(NC(=O)Cc3cc(OC4CC(F)(F)C4)ccn3)nn2)nn1 [Compound 24]
[1]
  clearance: 3 mL/min/kg
[2]
  clearance: 3 mL/min/kg

## CNC(=O)c1cn(C[C@H](F)CCc2ccc(NC(=O)Cc3cc(-c4cccc(OC(F)(F)F)c4)ccn3)nn2)nn1 [Compound 25]
[1]
  clearance: 8 mL/min/kg
[2]
  clearance: 2.9 mL/min/kg
[3]
  CLint scaled at 1 uM: 22 mL/min/kg

## CNC(=O)c1cn(C[C@H](F)CCc2ccc(NC(=O)Cc3cc(C(F)(F)F)cc(C)n3)nn2)nn1 [Compound 26]
[1]
  clearance: 1 mL/min/kg
[2]
  clearance: 0.9 mL/min/kg

## CNC(=O)c1cn(C[C@H](F)CCc2ccc(NC(=O)Cc3cc(OC4CC(F)(F)C4)cc(C)n3)nn2)nn1 [Compound 27, (R)-1-(4-(6-(2-(4-(3,3-difluorocyclobutoxy)-6-methylpyridin-2-yl)acetamido)pyridazin-3-yl)-2-fluorobutyl)-N-methyl-1H-1,2,3-triazole-4-carboxamide]
[4]
  efflux in Caco-2 assay: mild efflux
[1]
  clearance: 0.3 mL/min/kg
[2]
  clearance: 0.6 mL/min/kg

Reference: publication PMC9007139 (Journal of medicinal chemistry, 2020)
